Assay results: US20130005019A1, “GENETICALLY ENCODED PHOTO CONTROL” (North Carolina State University, priority 2010, published 2013)
Structures can show the parent of a compound that is named as a salt.

Columns and labels:
EGFP-ERK2 = EGFP-ERK2 nuclear translocation upon photo-activation of caged MEK1, live cell imaging; format: cell-based, human; conditions: resting cells co-expressing EGFP-ERK2, illuminated
Method: Cell culture and transfection—Human embryonic kidney 293ET cells were grown at 37° C. in 5% CO2 atmosphere in DMEM+GlutaMAX-1 medium (Gibco) supplemented with 10% fetal bovine serum (FBS) and 1× pen-strep solution for 24 hours before transfection. Cells were transiently transfected with Genejuice (Novagen) according to the manufacturer's protocol. Cells were serum-starved (DMEM with 0.1% FBS) and grown with 2 mM of the photocaged lysine 1 for 24 h before analysis. Growth medium was replaced with fresh 1-free DMEM supplemented with 0.1% FBS before photo-activation experiments.

MAP kinase pathway = test: EGFP-ERK2 nuclear translocation upon EGF stimulation; format: cell-based, human; conditions: wild-type MEK1
Method: FIG. 16 EGFP-ERK2 nuclear translocation upon EGF stimulation. (a) Montage showing EGFP-ERK2 sub-cellular fluorescence at different time points after activation of co-expressed wt-MEK1 by addition of 100 ng/ml EGF. Scale bars represent 5 μm.
When cells expressing wild-type MEK1 and EGFP-ERK2 are stimulated with 100 ng/ml of epidermal growth factor (EGF) the entire MAP kinase pathway is activated and EGFP-ERK2 is translocated to the nucleus. […] We observe substantial cell-to-cell variability in both the t1/2 for import and the maximal ratio of nuclear to cytoplasmic EGFP-ERK2, and, as previously reported (Cohen-Saidon et al., 2009), we observe less variability in the timing of nuclear import than in the fraction of ERK2 in the nucleus following stimulation (Cohen-Saidon et al., 2009) (FIG. 16c,d). The nuclear accumulation of EGFP-ERK2 peaks and then dissipates to pre-stimulus levels, a well known effect in cellular systems known as exact adaptation (Cohen-Saidon et al., 2009). This effect is not understood in molecular detail for EGF signalling, but must involve cellular processes that compensate for EGF stimulation at some—as yet undefined—point or points in the pathway. […]

[1] = Decaging of myoglobin containing 1 by 365 nm photolysis, ESI-MS; format: physicochemical; conditions: myoglobin containing 1, in vitro
Method: FIG. 3—A. anti His-tag immunoblot of cell extracts from E. coli cells expressing PCKRS/PyltRNACUA and myoglobin with an amber codon at position 4 (pMyo4TAGHis6) in the presence or absence of 1 mM photocaged lysine 1. B. Coomassie stained gel of Ni-NTA purified sfGFP-his6 from cells containing either the MbPylRS/PyltRNACUA pair and grown with ε-Boc-lysine (BocK) (1 mM), or the PCKRS/PyltRNACUA pair and grown with 1 (5 mM). The unnatural amino acid was introduced into sfGFP in response to an amber codon at position 145. […] C. […] A second peak corresponding to myoglobin with a free lysine is also detected (peak B; obtained mass 18396 Da, expected mass 18395.7 Da). […] D. MS/MS fragmentation of tryptic peptide derived from sfGFP(145-1) (the peptide sequence is shown above the spectrum; MH^+ peptide mass 2145.972 Da). […]
Protein total mass was determined on an LCT time-of-flight mass spectrometer with electrospray ionization (ESI, Micromass). […] Theoretical masses of wild-type proteins were calculated using Protparam (http://us.expasy.org/tools/protparam.html), and theoretical masses for unnatural amino acid containing proteins were adjusted manually.
For the analysis of the uncaging process, purified myoglobin was photolysed at 365 nm with a high power LED source module at 365 nm (Black-led-365, Prizmatix). Protein total mass was then determined as described above.

HEK293 cells [2] = test: Amber suppression of mCherry-TAG-egfp-ha reporter by PCKRS/PyltRNACUA; format: cell-based, human; conditions: PCKRS/PyltRNACUA pair, 1 mM, Western blot, versus hTyrtRNACUA
Method: Adherent human embryonic kidney (HEK)-293 cells were cultured at 37° C. in a 5% CO2 atmosphere in DMEM+GlutaMAX-1 medium (Gibco) supplemented with 10% FBS and 1× pen-strep solution. Cells were transiently transfected with Genejuice (Novagen) according to the manufacturer's protocol. Double transfections were performed using equal amount of both plasmids. Before transfection, medium was replaced by fresh antibiotic-free medium supplemented, when necessary, with the unnatural amino acid (see figure legends for concentrations). Cells were analyzed 24 h after transfection. For western blot analysis, cells were washed with cold PBS, then lysed with universal lysis buffer (Roche) at 4° C. for 10 min. Western Blots were performed using antibodies against HA-tag (Sigma), Flag-tag (Cell signaling), Ds-Red (Clontech) or p53 (Abcam).
For imaging cells expressing mCherry-TAG-EGFP-HA, cells were seeded and transfected in 24-well plates. Laser-scanning confocal microscopy was performed using a Bio-Rad Radiance 2100 system mounted on a Nikon Eclipse TE300 inverted microscope equipped with a Plan Fluor ELWD 20×/0.45 objective. Fluorescence emission was measured between 515-530 nm for EGFP (excitation wavelength: 488 nm) and above 560 nm for mCherry (excitation wavelength: 543 nm).

sfGFP-his6 = test: Expression of sfGFP-his6 with unnatural amino acid at amber codon 145; format: cell-based, E. coli; conditions: PCKRS/PyltRNACUA pair, 1 (5 mM), amber codon at position 145
Method: FIG. 3—A. anti His-tag immunoblot of cell extracts from E. coli cells expressing PCKRS/PyltRNACUA and myoglobin with an amber codon at position 4 (pMyo4TAGHis6) in the presence or absence of 1 mM photocaged lysine 1. B. Coomassie stained gel of Ni-NTA purified sfGFP-his6 from cells containing either the MbPylRS/PyltRNACUA pair and grown with ε-Boc-lysine (BocK) (1 mM), or the PCKRS/PyltRNACUA pair and grown with 1 (5 mM). The unnatural amino acid was introduced into sfGFP in response to an amber codon at position 145. […] C. […] A second peak corresponding to myoglobin with a free lysine is also detected (peak B; obtained mass 18396 Da, expected mass 18395.7 Da). […] D. MS/MS fragmentation of tryptic peptide derived from sfGFP(145-1) (the peptide sequence is shown above the spectrum; MH^+ peptide mass 2145.972 Da). The spectrum confirms the incorporation of 1 at codon 145. The fragmentation sites are illustrated above the spectrum. […] E. ESI-MS analysis of myoglobin produced by PCKRS/PyltRNACUA (with 2 mM 1) after photolysis for 0 min, 1 min and 5 min with 365 nm light (A: caged protein mass 18633.0±1.8 Da, expected mass 18631.7 Da; B: uncaged protein mass 18395.4±0.7 Da, expected mass 18395.7).
To express myoglobin with an incorporated unnatural amino acid, we transformed E. coli DH10B cells with pBKamp-PCKRS and pMyo4TAGPylT-his6. […]

HEK293 cells [3] = test: Photo-control of p53-EGFP nuclear import, live cell imaging; format: cell-based, human; conditions: photolysis 5 s, 365 nm, 1.2 mW/cm^2; amino acid at position 305 of p53
Method: Fluorescence confocal micrographs showing the cellular localization of the EGFP fusions of wild-type p53, p53-K305A. D. Confocal micrographs showing the cellular localization of the EGFP fusions before and 50 min after photolysis (5 s; 365 nm; 1.2 mW/cm^2).
For live cell imaging, cells were seeded and transfected in μ-Dish (Ibidi). Live cells were imaged at room temperature with a Zeiss LSM 710 Laser Scanning Microscope equipped with a Plan Apochromat 63×/1.4 oil immersion objective. […] The mean nuclear (Fn) and cytoplasmic (Fc) fluorescence intensities were quantified using ImageJ software to enable the F(n/c) ratio to be determined according to the formula: F(n/c)=(Fn−Fb)/(Fc−Fb), where Fb is the mean background fluorescence intensity.

MEK1 [4] = test system: MEK1
Method: ERK2 nucleocytoplasmic shuttling. (a) HEK293ET cells co-expressing C-MEK1-DD and EGFP-ERK2 were illuminated (2 s, 365 nm, 1 mW/cm^2), then 8 minutes after illumination, U0126 (10 μM) was added to block the activity of photoactivated C-MEK1-DD and unveil EGFP-ERK2 efflux from the nucleus. […] Scale bars represent 5 μm. (b) The graph presents the normalized F(n/c) as a function of time after illumination (mean±SD of ten representative cells). The arrow indicates the time when U0126 was added.
To unveil this compensating process and visualize ERK2 nuclear export, we induced EGFP-ERK2 nuclear translocation by C-MEK1-DD photoactivation, and then blocked MEK1-induced ERK2 nuclear translocation by addition of the MEK1 inhibitor U0126.
Live cell imaging—Live cells grown in μ-Dish (Ibidi) were imaged at room temperature with an inverted Zeiss LSM 710 Laser Scanning Microscope equipped with a Plan Apochromat 63×/1.4 oil immersion objective. […] The mean nuclear (Fn) and cytoplasmic (Fc) fluorescence intensities were quantified using ImageJ software to enable the F(n/c) ratio to be determined according to the formula: F(n/c)=(Fn−Fb)/(Fc−Fb), where Fb is the mean background fluorescence intensity.

MEK1 [5] = conditions: C-MEK1-ΔN cells, 10 μM U0126 for 30 min before illumination
Method: (a) HEK293ET cells co-transfected with plasmids encoding PCKRS, pyrrolysyl tRNACUA, C-MEK1-ΔN-HA and EGFP-ERK2 (either TEY, lanes 7 and 8; or AAA, lanes 9 and 10) were grown in medium supplemented with 2 mM of amino acid 1 (lanes 8 and 10) or without (lanes 7 and 9) for 24 h. […] (b) HEK293ET cells co-transfected with plasmids encoding PCKRS, pyrrolysyl tRNACUA, EGFP-ERK2 and either A-MEK1-ΔN-HA (lane 2), or D-MEK1-ΔN-HA (lanes 3-6), or C-MEK1-ΔN-HA (lanes 7-10) were grown in medium supplemented with 2 mM of 1 and 0.1% FBS for 24 h. Cells expressing D-MEK1-ΔN-HA and C-MEK1-ΔN-HA were illuminated with a 365 nm LED lamp for 60 s. Cells were lysed 1, 10 and 60 min after illumination. (c) HEK293ET cells co-transfected with plasmids encoding PCKRS, pyrrolysyl tRNACUA, EGFP-ERK2 and either A-MEK1-ΔN-HA (lane 2), or D-MEK1-ΔN-HA (lanes 3, 5, 6, 9, 10, 13, 14, 17, 18) or C-MEK1-ΔN-HA (lanes 4, 7, 8, 11, 12, 15, 16, 19, 20) were grown in medium supplemented with 2 mM of amino acid 1 and 0.1% FBS for 24 h. […]
Immunoblotting—Cells were washed with ice-cold phosphate buffer saline (PBS), then lysed with ice-cold universal lysis buffer (Roche) supplemented with protease inhibitors cocktail (Roche), 1 mM sodium vanadate, 5 mM sodium fluoride and 10 mM EDTA. Samples were resolved by SDS-PAGE and analyzed by immunoblotting with appropriate antibodies after transferring to nitrocellulose membranes.

[6] = test system: EGFP-ERK2 and endogenous ERK1/2; test: Immunoblot of ERK, p90RSK and Elk-1 phosphorylation upon photo-activation of caged MEK1; format: cell-based, human
Description: MEK1 is highly specific for the downstream extracellular signal-regulated protein kinases ERK1 and ERK2, and has no other known substrates (Shaul and Seger, 2007). MEK1 phosphorylates two regulatory residues in ERK1/2, a threonine and a tyrosine, both part of a conserved Thr-Glu-Tyr (TEY) motif (Payne et al., 1991). To verify that the introduction of the photocaged lysine 1 prevents kinase activity, C-MEK1-ΔN was co-expressed with ERK2 fused to an enhanced green fluorescence protein (EGFP-ERK2) in resting HEK293ET cells.
To activate C-MEK1-ΔN we illuminated cells producing the protein for one minute using a 365 nm light-emitting diode (LED) lamp placed underneath the culture plate. This method allows us to illuminate a sufficient number of cells for western blot analysis with monochromatic light that avoids sample heating. […] We observed more phosphorylated EGFP-ERK2 than phosphorylated endogenous ERK1/2. This is consistent with the fact that only a subset of cells contain EGFP-ERK2 and C-MEK1-ΔN, via transfection, while essentially all cells contain endogenous ERK1/2. […] EGFP-ERK2 levels in transfected cells are lower-than or equal to that of the endogenous ERKs. […]

In the case of “wt-MEK1: wild-type MEK1 [reference compound]”, the “EGFP-ERK2 nuclear translocation upon illumination” value (EGFP-ERK2) is reported as “no nuclear translocation was observed”.

In the case of “EGF: Recombinant human epidermal growth factor, purchased from Gibco”, the “lag phase prior to rapid nuclear accumulation of EGFP-ERK2” value (MAP kinase pathway; 100 ng/ml EGF) is reported as 3 min and the “t1/2 of EGFP-ERK2 nuclear translocation” value (MAP kinase pathway; EGF-stimulated activation of the whole pathway, 100 ng/ml) is reported as 4.5 min.

For CC(OC(=O)NCCCC[C@H](N)C(=O)O)c1cc2c(cc1[N+](=O)[O-])OCO2 (stereo partly drawn) [compound 1, (2S)-2-Amino-6-{([1-(6-nitrobenzo[d][1,3]dioxol-5-yl)ethoxy]carbonylamino}hexanoic acid TFA salt], the “decaging upon irradiation with 365 nm light” value [1] was “efficiently decaged”, the efficiency of incorporation (HEK293 cells [2]) was “comparable to the efficiency of incorporation of tyrosine” and the “yield of sfGFP-his6 obtained by incorporation” value (sfGFP-his6) was 1 mg/L.

In the case of N[C@@H](Cc1ccc(O)cc1)C(=O)O [tyrosine], the “p53 localization following photolysis” value (HEK293 cells [3]) is reported as “did not localize to the nucleus”.

In the case of N#CC(=C(/N)Sc1ccccc1N)/C(C#N)=C(\N)Sc1ccccc1N [U0126], the “t1/2 of loss of EGFP nuclear fluorescence” value (MEK1 [4]; 10 μM added 8 min after C-MEK1-DD photoactivation) is reported as less than 3 min, the “effect on EGFP-ERK2 nuclear accumulation” value (MEK1 [4]; 10 μM added before illumination, C-MEK1-DD cells) is reported as “significantly blocked nuclear accumulation” and the “increase of endogenous phosphorylated p90RSK and Elk-1 after illumination” value (MEK1 [5]) is reported as “not observed”.

B1: D-MEK1-ΔN: dead MEK1 with deletion Δ30-49 and mutation K97M (protein, UniProt Q02750 1-393, looked up, variant del30-49 K97M)
Dual specificity …: MPKKKPTPIQLNPAPDGSAVNGTSSAETNLEAFLTQKQKVGELKDDDFEKISELGAGNGGVVFKVSHKPSGLVMARMLIHLEIKPAIRNQIIRELQVLHECNSPYIVGFYGAFYSDGEISICMEHMDGGSLDQVLKKAGRIPEQILGKVSIAVIKGLTYLREKHKIMHRDVKPSNILVNSRGEIKLCDFGVSGQLIDSMANSFVGTRSYMSPERLQGTHYSVQSDIWSMGLSLVEMAVGRYPIPPPDAKELELMFGCQVEGDAAETPPRPRTPGRPLSSYGMDSRPPMAIFELLDYIVNEPPPKLPSGVFSLEFQDFVNKCLIKNPAERADLKQLMVHAFIKRSDAEEVDFAGWLCSTIGLNQPSTPTHAAGV
modifications: HA tag
notes: dead MEK1 with deletion Δ30-49 and mutation K97M
With B1 the “phosphorylation of EGFP-ERK2 or endogenous ERK1/2 after illumination” value ([6]; 365 nm LED illumination) was “no detectable phosphorylation” and the “endogenous phosphorylated p90RSK and Elk-1 after illumination” value ([6]; resting cells co-expressing EGFP-ERK2, 60 s 365 nm) was “not observed”.

B2: D-MEK1-DD: catalytically dead MEK1 mutant with S218D, S222D and K97M (protein, UniProt Q02750 1-393, looked up, variant S218D S222D K97M)
Dual specificity …: MPKKKPTPIQLNPAPDGSAVNGTSSAETNLEALQKKLEELELDEQQRKRLEAFLTQKQKVGELKDDDFEKISELGAGNGGVVFKVSHKPSGLVMARMLIHLEIKPAIRNQIIRELQVLHECNSPYIVGFYGAFYSDGEISICMEHMDGGSLDQVLKKAGRIPEQILGKVSIAVIKGLTYLREKHKIMHRDVKPSNILVNSRGEIKLCDFGVSGQLIDDMANDFVGTRSYMSPERLQGTHYSVQSDIWSMGLSLVEMAVGRYPIPPPDAKELELMFGCQVEGDAAETPPRPRTPGRPLSSYGMDSRPPMAIFELLDYIVNEPPPKLPSGVFSLEFQDFVNKCLIKNPAERADLKQLMVHAFIKRSDAEEVDFAGWLCSTIGLNQPSTPTHAAGV
modifications: HA tag
notes: catalytically dead MEK1 mutant with S218D, S222D and K97M
With B2 the “EGFP-ERK2 nuclear translocation upon illumination” value (EGFP-ERK2) was “no nuclear translocation was observed”.
